Test results reported in patent US20120157478A1, “Hair Care Compositions and Methods to Improve Hair Appearance” (priority 2010, published 2012).

System: primary human dermal papilla cells
Assay: Survival of metabolically stressed primary human dermal papilla cells (ATP, Cell Titer Glo)
Assay type: cell-based
Conditions: for Survival: 48 hr stress, Vehicle = 1.00; for benefit in increasing the survival of stressed dermal papilla cells (in words): additional testing, individual components versus mixture of the three
Source text: The dermal papilla, in normal human hair, is the control center for hair diameter and growth. Increasing survival of dermal papilla cells in situ leads to increased hair diameter and to a longer anagen phase which results in longer hair, a higher hair density, and potentially delayed emergence of gray hair. The appearance of this hair results in healthier, younger looking hair. Accordingly, an increase in survival of dermal papilla cells correlates with healthier hair showing an increase in hair diameter, longer hair, higher hair density, and a delayed on-set of gray hair.
Primary human dermal papilla cells were metabolically stressed for 48 hours in reduced standard tissue culture media. During this period of stress the cells were treated with the mixtures below. After 48 hr the metabolic activity of the cells was measured by the amount of ATP using the Cell Titer Glo™ kit (Promega).

In the case of `NC(=O)c1cccnc1` [Niacinamide, niacinamide], the Survival (Niacinamide 0.5 mM, second series) was 1.02, the Survival (Niacinamide 1.5 mM, first series) was 0.71 and the “benefit in increasing the survival of stressed dermal papilla cells (in words)” value (“benefit in increasing the survival” below) was “little benefit”.

`CC(C)(CO)[C@@H](O)C(=O)NCCCO` [Panthenol, panthenol] was tested, and the Survival (Panthenol 0.03%, first series) was 1.02, the Survival (Panthenol 0.3%, second series) was 0.75 and the “benefit in increasing the survival” value was “little benefit”.

For `O=c1cc(-c2ccc(O)cc2)oc2cc(O)cc(O)c12` [apigenin, 5,7-Dihydroxy-2-(4-hydroxyphenyl)-4H-1-benzopyran-4-one], the “increase in the hair follicle cells that survived” value (metabolically stressed 48 hr in reduced standard tissue culture media, ATP by Cell Titer Glo, concentrations not given) was 122%.

`Cn1c(=O)c2c(ncn2C)n(C)c1=O` [Caffeine, caffeine] was tested, and the Survival (Caffeine 0.02%, first series) was 0.94, the Survival (Caffeine 0.05%, second series) was 0.98 and the “benefit in increasing the survival” value was “little benefit”.
